System: primary rat dopaminergic neurons
Experiment: ROS production in primary rat dopaminergic TH-positive neurons after 6-OHDA injury
Format: cell-based
Conditions: after injury with 6-OHDA (20 µM, 4 h); FIG. 1
Description: Rat dopaminergic neurons were cultured as described by Visanji et al., 2008. Briefly, pregnant female rat of 15 days of gestation are sacrificed using a deep anesthesia with CO2 chamber and a cervical dislocation. The midbrains obtained from 15-day-old rat embryos are dissected under a microscope. The embryonic midbrains are removed and placed in ice-cold medium of Leibovitz (L15) containing 2% of Penicillin- Streptomycin (PS) and 1% of bovine serum albumin (BSA). The ventral portion of the mesencephalic flexure, a region of the developing brain rich in dopaminergic neurons, is used for the cell preparations.
The midbrains are dissociated by trypsinisation for 20 min at 37° C. (solution at a final concentration of 0.05% trypsin and 0.02% EDTA). The reaction is stopped by the addition of Dulbecco’s modified Eagle’s medium (DMEM) containing DNAase I grade II (0.5 mg/mL) and 10% of foetal calf serum (FCS). Cells are then mechanically dissociated by 3 passages through a 10 mL pipette. Cells are then centrifuged at 180 x g for 10 min at +4° C. on a layer of BSA (3.5%) in L15 medium. […] Viable cells are counted in a Neubauer cytometer using the trypan blue exclusion test. […] Six wells per condition are assessed. […]

O=C(Nc1ccc2c(c1)S(=O)(=O)N(c1ccc(Br)cc1)CCO2)c1cnc(-c2ccccc2)[nH]1 [Compound 1331, N-(2-(4-bromophenyl)-1,1-dioxido-3,4-dihydro-2H-benzo[b][1,4,5]oxathiazepin-8-yl)-2-phenyl-1H-imidazole-5-carboxamide]
ROS production: reduction in ROS

Source: patent US20230218632A1, “CYCLIC SULFONAMIDE DERIVATIVES AS TRAP1 MODULATORS AND USES THEREOF” (Amathus Therapeutics, Inc., priority 2020, published 2023)
